Tests used:
Format in all cases: functional
[1] = (§1) Inhibition of neuronal excitability in C57BL/6 mouse Neocortical neurons assessed as reduction in spontaneous calcium oscillation amplitude measured for 10 mins by Fluo-4 staining based FLIPR assay; conditions: C57BL/6, 10 min
Mus musculus [2] = species on record: Mus musculus; assay: as §1
[3] = (§2) Inhibition of neuronal excitability in C57BL/6 mouse Neocortical neurons assessed as effect on spontaneous calcium oscillation frequency measured for 10 mins by Fluo-4 staining based FLIPR assay; conditions: C57BL/6, 10 min
Mus musculus [4] = species on record: Mus musculus; assay: as §2

CCO[C@@H]1O[C@@H]([C@@H]2c3cc(OC)c(OC)cc3CCN2C)c2ccc3c(c21)OCO3
IC50 [1]: 10.2 µM | inhibition (Mus musculus [2]): Dose-dependent effect | IC50 [3]: 10.2 µM | inhibition (Mus musculus [4]): Dose-dependent effect

CO[C@H]1O[C@@H]([C@@H]2c3cc4c(cc3CCN2C)OCO4)c2ccc3c(c21)OCO3
IC50 [1]: 6.8 µM | inhibition (Mus musculus [2]): Dose-dependent effect | IC50 [3]: 6.8 µM | inhibition (Mus musculus [4]): Dose-dependent effect

CCO[C@H]1O[C@@H]([C@@H]2c3cc4c(cc3CCN2C)OCO4)c2ccc3c(c21)OCO3
IC50 [1]: 8.3 µM | inhibition (Mus musculus [2]): Dose-dependent effect | IC50 [3]: 8.3 µM | inhibition (Mus musculus [4]): Dose-dependent effect

CCO[C@@H]1O[C@@H]([C@@H]2c3cc4c(cc3CCN2C)OCO4)c2ccc3c(c21)OCO3
IC50 [1]: 3.1 µM | inhibition (Mus musculus [2]): Dose-dependent effect | IC50 [3]: 3.1 µM | inhibition (Mus musculus [4]): Dose-dependent effect

CO[C@@H]1O[C@@H]([C@@H]2c3cc4c(cc3CCN2C)OCO4)c2ccc3c(c21)OCO3
IC50 [1]: 5.6 µM | inhibition (Mus musculus [2]): Dose-dependent effect | IC50 [3]: 5.6 µM | inhibition (Mus musculus [4]): Dose-dependent effect

COc1cc2c(cc1OC)[C@@H]([C@@H]1O[C@H](O)c3c1ccc1c3OCO1)N(C)CC2
IC50 [1]: 11.6 µM | inhibition (Mus musculus [2]): Dose-dependent effect | IC50 [3]: 11.6 µM | inhibition (Mus musculus [4]): Dose-dependent effect
